# Reference: ChEMBL document CHEMBL3885861, “Open TG-GATES”
# Species: Rattus norvegicus
# Test: Open TG-GATES - Regimen: Daily Repeat
# Assay type: toxicity, organism-based, Sprague-Dawley
# Parameters: regimen Daily Repeat, gender Male, age 6 weeks
# Details: in vivo, po, route gavage; for Bas / Eos / Fbg / Lym / MCH / MCHC / MCV / Mono / Neu / PT / Plat / RBC / Ret / WBC: tissue Blood; for KIDNEY_L / KIDNEY_R / KIDNEY_TOTAL: tissue Kidney; for ALP / ALT / AST / BUN / CRE / DBIL / IP / K / LDH / Na / RALB / TBIL / TC / TG / TP / gamma-GTP / GLC: tissue Plasma
# [1] = 0 mg/kg, 72 h, dose level Control, time 3 day
# [2] = 0 mg/kg, […], dose level Control, time 7 day
# [3] = 0 mg/kg, […], dose level Control, time 14 day
# [4] = 0 mg/kg, […], dose level Control, time 28 day
# [5] = 3 mg/kg, 72 h, dose level Low, time 3 day
# [6] = 3 mg/kg, […], dose level Low, time 7 day
# [7] = 3 mg/kg, […], dose level Low, time 14 day
# [8] = 3 mg/kg, […], dose level Low, time 28 day
structure (smiles),measurement,setting,value
Cc1cnc(NC(=O)C2=C(O)c3ccccc3S(=O)(=O)N2C)s1 [MELOXICAM],TERMINAL_BW,[1],245.1 g
same,Bas,[1],0.8%
same,Eos,[1],1.2%
same,Fbg,[1],223.6 mg/dL
same,Lym,[1],78.4%
same,MCH,[1],21.4 pg
same,MCHC,[1],34.2%
same,MCV,[1],62.4 fL
same,Mono,[1],2.8%
same,Neu,[1],17%
same,PT,[1],11.9 s
same,Plat,[1],120 x10_4/uL
same,RBC,[1],645.4 x10_4/ul
same,Ret,[1],5.5%
same,KIDNEY_L,[1],1 g
same,KIDNEY_R,[1],1 g
same,KIDNEY_TOTAL,[1],2 g
same,ALP,[1],947 IU/L
same,ALT,[1],42.2 IU/L
same,AST,[1],70.4 IU/L
same,BUN,[1],18 mg/dL
same,CRE,[1],0.4 mg/dL
same,DBIL,[1],0.1 mg/dL
same,IP,[1],7.7 mg/dL
same,K,[1],4.1 meq/L
same,LDH,[1],199.2 IU/L
same,Na,[1],141 meq/L
same,RALB,[1],3.5 g/dL
same,TBIL,[1],0.2 mg/dL
same,TC,[1],70.8 mg/dL
same,TG,[1],111.6 mg/dL
same,TP,[1],5.6 g/dL
same,gamma-GTP,[1],1 IU/L
same,TERMINAL_BW,[2],281.9 g
same,TERMINAL_BW,[3],300.3 g
same,TERMINAL_BW,[4],396.9 g
same,Bas,[2],0.8%
same,Eos,[2],1%
same,Fbg,[2],216.6 mg/dL
same,Lym,[2],78.4%
same,MCH,[2],21.4 pg
same,MCHC,[2],34.9%
same,MCV,[2],61.4 fL
same,Mono,[2],2.4%
same,Neu,[2],16.6%
same,PT,[2],11.9 s
same,Plat,[2],139.5 x10_4/uL
same,RBC,[2],655.6 x10_4/ul
same,Ret,[2],5.1%
same,Bas,[3],1%
same,Eos,[3],0.8%
same,Fbg,[3],226.8 mg/dL
same,Lym,[3],78.4%
same,MCH,[3],20.1 pg
same,MCHC,[3],34%
same,MCV,[3],59.1 fL
same,Mono,[3],2.8%
same,Neu,[3],16.8%
same,PT,[3],11.6 s
same,Plat,[3],111.1 x10_4/uL
same,RBC,[3],734.2 x10_4/ul
same,Ret,[3],3.2%
same,Bas,[4],1%
same,Eos,[4],1%
same,Fbg,[4],207.2 mg/dL
same,Lym,[4],87%
same,MCH,[4],19.3 pg
same,MCHC,[4],34.4%
same,MCV,[4],56.1 fL
same,Mono,[4],1.5%
same,Neu,[4],9%
same,PT,[4],11.6 s
same,RBC,[4],768.2 x10_4/ul
same,Ret,[4],2.4%
same,WBC,[4],144.5 x10_2/uL
same,KIDNEY_L,[2],1.2 g
same,KIDNEY_R,[2],1.1 g
same,KIDNEY_TOTAL,[2],2.3 g
same,KIDNEY_L,[3],1.2 g
same,KIDNEY_R,[3],1.2 g
same,KIDNEY_TOTAL,[3],2.4 g
same,KIDNEY_L,[4],1.4 g
same,KIDNEY_R,[4],1.3 g
same,KIDNEY_TOTAL,[4],2.7 g
same,ALP,[2],892.2 IU/L
same,ALT,[2],33.8 IU/L
same,AST,[2],68.2 IU/L
same,BUN,[2],15.8 mg/dL
same,CRE,[2],0.4 mg/dL
same,DBIL,[2],0.082 mg/dL
same,GLC,[2],214.8 mg/dL
same,IP,[2],7.3 mg/dL
same,K,[2],3.8 meq/L
same,LDH,[2],190.6 IU/L
same,Na,[2],142 meq/L
same,RALB,[2],3.3 g/dL
same,TBIL,[2],0.1 mg/dL
same,TC,[2],67.2 mg/dL
same,TG,[2],110.2 mg/dL
same,TP,[2],5.7 g/dL
same,gamma-GTP,[2],1.2 IU/L
same,ALP,[3],880.6 IU/L
same,ALT,[3],36.6 IU/L
same,AST,[3],69.6 IU/L
same,BUN,[3],16.4 mg/dL
same,CRE,[3],0.4 mg/dL
same,DBIL,[3],0.094 mg/dL
same,IP,[3],6.9 mg/dL
same,K,[3],4 meq/L
same,LDH,[3],178.6 IU/L
same,Na,[3],142 meq/L
same,RALB,[3],3.6 g/dL
same,TBIL,[3],0.2 mg/dL
same,TC,[3],69 mg/dL
same,TG,[3],113.2 mg/dL
same,TP,[3],6.1 g/dL
same,gamma-GTP,[3],1 IU/L
same,ALP,[4],523.8 IU/L
same,ALT,[4],32 IU/L
same,AST,[4],65.8 IU/L
same,BUN,[4],18.2 mg/dL
same,CRE,[4],0.5 mg/dL
same,DBIL,[4],0.1 mg/dL
same,GLC,[4],239.5 mg/dL
same,IP,[4],6.9 mg/dL
same,K,[4],4.1 meq/L
same,LDH,[4],187.8 IU/L
same,Na,[4],140.8 meq/L
same,RALB,[4],3.5 g/dL
same,TBIL,[4],0.2 mg/dL
same,TC,[4],69 mg/dL
same,TG,[4],141.2 mg/dL
same,TP,[4],5.9 g/dL
same,gamma-GTP,[4],0.5 IU/L
same,TERMINAL_BW,[5],246.9 g
same,Bas,[5],0.8%
same,Eos,[5],0.8%
same,Fbg,[5],225.2 mg/dL
same,Lym,[5],83%
same,MCH,[5],21.6 pg
same,MCHC,[5],34.6%
same,MCV,[5],62.5 fL
same,Mono,[5],2.2%
same,Neu,[5],13%
same,PT,[5],11.8 s
same,Plat,[5],121.1 x10_4/uL
same,RBC,[5],639.2 x10_4/ul
same,Ret,[5],5.7%
same,KIDNEY_L,[5],1.1 g
same,KIDNEY_R,[5],1.1 g
same,KIDNEY_TOTAL,[5],2.2 g
same,ALP,[5],950.2 IU/L
same,ALT,[5],35.6 IU/L
same,AST,[5],62.4 IU/L
same,BUN,[5],15.2 mg/dL
same,CRE,[5],0.4 mg/dL
same,DBIL,[5],0.1 mg/dL
same,IP,[5],7.6 mg/dL
same,K,[5],4.1 meq/L
same,LDH,[5],195.6 IU/L
same,Na,[5],141 meq/L
same,RALB,[5],3.5 g/dL
same,TBIL,[5],0.2 mg/dL
same,TC,[5],69.8 mg/dL
same,TG,[5],140.8 mg/dL
same,TP,[5],5.6 g/dL
same,gamma-GTP,[5],0.8 IU/L
same,TERMINAL_BW,[6],277.7 g
same,TERMINAL_BW,[7],332.6 g
same,TERMINAL_BW,[8],420.4 g
same,Bas,[6],1%
same,Eos,[6],1%
same,Fbg,[6],226.4 mg/dL
same,Lym,[6],81.6%
same,MCH,[6],21.9 pg
same,MCHC,[6],34.7%
same,MCV,[6],63.3 fL
same,Mono,[6],2.4%
same,Neu,[6],14.6%
same,PT,[6],11.9 s
same,Plat,[6],124.9 x10_4/uL
same,RBC,[6],637.8 x10_4/ul
same,Ret,[6],5.5%
same,WBC,[6],129.6 x10_2/uL
same,Bas,[7],1%
same,Eos,[7],1%
same,Fbg,[7],222.4 mg/dL
same,Lym,[7],80%
same,MCH,[7],20.4 pg
same,MCHC,[7],33.6%
same,MCV,[7],60.7 fL
same,Mono,[7],2.6%
same,Neu,[7],15.2%
same,PT,[7],11.6 s
same,Plat,[7],118.9 x10_4/uL
same,RBC,[7],689.2 x10_4/ul
same,Ret,[7],4.1%
same,WBC,[7],124.4 x10_2/uL
same,Bas,[8],1%
same,Eos,[8],1%
same,Fbg,[8],213.8 mg/dL
same,Lym,[8],81.2%
same,MCH,[8],18.9 pg
same,MCHC,[8],34.2%
same,MCV,[8],55.2 fL
same,Mono,[8],2.2%
same,Neu,[8],13.4%
same,PT,[8],11.7 s
same,Plat,[8],115.1 x10_4/uL
same,RBC,[8],790 x10_4/ul
same,Ret,[8],2.5%
same,WBC,[8],131 x10_2/uL
same,KIDNEY_L,[6],1.3 g
same,KIDNEY_R,[6],1.2 g
same,KIDNEY_TOTAL,[6],2.5 g
same,KIDNEY_L,[7],1.4 g
same,KIDNEY_R,[7],1.3 g
same,KIDNEY_TOTAL,[7],2.7 g
same,KIDNEY_L,[8],1.5 g
same,KIDNEY_R,[8],1.5 g
same,KIDNEY_TOTAL,[8],3 g
same,ALP,[6],971.8 IU/L
same,ALT,[6],37 IU/L
same,AST,[6],68.4 IU/L
same,BUN,[6],15.2 mg/dL
same,CRE,[6],0.4 mg/dL
same,DBIL,[6],0.098 mg/dL
same,IP,[6],7.4 mg/dL
same,K,[6],4.1 meq/L
same,LDH,[6],186.8 IU/L
same,Na,[6],141.8 meq/L
same,RALB,[6],3.4 g/dL
same,TBIL,[6],0.2 mg/dL
same,TC,[6],72.6 mg/dL
same,TG,[6],128.8 mg/dL
same,TP,[6],5.7 g/dL
same,gamma-GTP,[6],1.2 IU/L
same,ALP,[7],820.8 IU/L
same,AST,[7],75.2 IU/L
same,BUN,[7],17 mg/dL
same,CRE,[7],0.5 mg/dL
same,DBIL,[7],0.1 mg/dL
same,GLC,[7],214.6 mg/dL
same,IP,[7],7.4 mg/dL
same,K,[7],4 meq/L
same,LDH,[7],223.6 IU/L
same,Na,[7],141.4 meq/L
same,RALB,[7],3.5 g/dL
same,TBIL,[7],0.2 mg/dL
same,TC,[7],72.6 mg/dL
same,TG,[7],141.8 mg/dL
same,TP,[7],5.9 g/dL
same,gamma-GTP,[7],1 IU/L
